Assay results: PubChem BioAssay AID1963428 (Molecular Pharmacology Branch, DTP, NCI, 2024)
Values joined by “and” are separate entries in the source; they are usually repeats but may differ in a detail not shown here. Equal values may be shown once.

Test system: 171881-019-R-J1-PDC complex spheroid growth, % test/control
Experiment: Anticancer human tumor 171881-019-R-J1-PDC patient-derived invasive breast carcinoma cell line growth inhibition [Asc]
Conditions: for viability, T/C: stronger effect = lower value
Outline: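 Tumor cells were grown as complex spheroids with human endothelial cells (HUVEC) and human mesenchymal stem cells as stroma. Agents were tested alone and in combination, in half-log steps down from the clinical Cmax, or from 10 microM where Cmax was unknown.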

[1] = curve of first compound, second compound 0.1 µM
[2] = curve of first compound, second compound 0.316 µM
[3] = curve of first compound, second compound 1 µM
[4] = second compound 0.1 µM, first compound 0.0316 µM
[5] = second compound 0.1 µM, first compound 0.1 µM
[6] = second compound 0.1 µM, first compound 0.316 µM
[7] = second compound 0.1 µM, first compound 1 µM
[8] = second compound 0.1 µM, first compound 3.16 µM
[9] = second compound 0.1 µM, first compound 10 µM
[10] = second compound 0.316 µM, first compound 0.0316 µM
[11] = second compound 0.316 µM, first compound 0.1 µM
[12] = second compound 0.316 µM, first compound 0.316 µM
[13] = second compound 0.316 µM, first compound 1 µM
[14] = second compound 0.316 µM, first compound 3.16 µM
[15] = second compound 0.316 µM, first compound 10 µM
[16] = second compound 1 µM, first compound 0.0316 µM
[17] = second compound 1 µM, first compound 0.1 µM
[18] = second compound 1 µM, first compound 0.316 µM
[19] = second compound 1 µM, first compound 1 µM
[20] = second compound 1 µM, first compound 3.16 µM
[21] = second compound 1 µM, first compound 10 µM
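Throughout, for viability, T/C: spheroids exposed to compounds for 7 days.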

With `C#Cc1c(F)ccc2cc(O)cc(-c3ncc4c(N5CC6CCC(C5)N6)nc(OCC56CCCN5CC(F)C6)nc4c3F)c12` (configuration not stated) + CNC(C)C(=O)NC1CN(S(=O)(=O)c2cccc(S(=O)(=O)N3CCC4CCC(C(=O)NC(c5ccccc5)c5ccccc5)N4C(=O)C(NC(=O)C(C)NC)C3)c2)CCC2CCC(C(=O)NC(c3ccccc3)c3ccccc3)N2C1=O the IC50 (curve of first compound, second compound 0.01 µM) was over 10 µM, the IC50 (curve of first compound, second compound 0.0316 µM) was over 10 µM and the IC50 [1] was over 10 µM. The IC50 [2] was over 10 µM, the IC50 [3] was over 10 µM and the viability, T/C (second compound 0.01 µM, first compound 0.0316 µM) was 98%. The viability, T/C (second compound 0.01 µM, first compound 0.1 µM) was 116%, the viability, T/C (second compound 0.01 µM, first compound 0.316 µM) was 125% and the viability, T/C (second compound 0.01 µM, first compound 1 µM) was 187%. It also gave a viability, T/C (second compound 0.01 µM, first compound 3.16 µM) of 254%, a viability, T/C (second compound 0.01 µM, first compound 10 µM) of 248% and a viability, T/C (second compound 0.0316 µM, first compound 0.0316 µM) of 107%. The viability, T/C (second compound 0.0316 µM, first compound 0.1 µM) was 107%, the viability, T/C (second compound 0.0316 µM, first compound 0.316 µM) was 131% and the viability, T/C (second compound 0.0316 µM, first compound 1 µM) was 216%. The viability, T/C (second compound 0.0316 µM, first compound 3.16 µM) was 261%, the viability, T/C (second compound 0.0316 µM, first compound 10 µM) was 255% and the viability, T/C [4] was 105%. For the same compound, the viability, T/C [5] was 122%, the viability, T/C [6] was 134% and the viability, T/C [7] was 168%. For the same compound, the viability, T/C [8] was 247%, the viability, T/C [9] was 245% and the viability, T/C [10] was 102%. It also gave a viability, T/C [11] of 109%, a viability, T/C [12] of 109% and a viability, T/C [13] of 170%. It also gave a viability, T/C [14] of 214%, a viability, T/C [15] of 230% and a viability, T/C [16] of 99.3%. The viability, T/C [17] was 109%, the viability, T/C [18] was 138% and the viability, T/C [19] was 170%. The viability, T/C [20] was 219% and the viability, T/C [21] was 235%.

In the case of `C=CC(=O)N1CCN(c2nc(=O)n(-c3c(C)ccnc3C(C)C)c3nc(-c4c(O)cccc4F)c(F)cc23)C(C)C1` (configuration not stated) + CCN1C(C(=O)NC23CCC(C(=O)O)(CC2)CC3)C(c2cccc(Cl)c2F)C2(C(=O)Nc3cc(Cl)ccc32)C12CCCCC2, the IC50 (curve of first compound, second compound 0.03 µM) is reported as over 10 µM, the IC50 (curve of first compound, second compound 0.0949 µM) is reported as over 10 µM and the IC50 (curve of first compound, second compound 0.3 µM) is reported as over 10 µM. For the same compound, the IC50 (curve of first compound, second compound 0.949 µM) was over 10 µM, the IC50 (curve of first compound, second compound 3 µM) was over 10 µM and the viability, T/C (second compound 0.03 µM, first compound 0.0316 µM) was 103%. For the same compound, the viability, T/C (second compound 0.03 µM, first compound 0.1 µM) was 102%, the viability, T/C (second compound 0.03 µM, first compound 0.316 µM) was 100% and the viability, T/C (second compound 0.03 µM, first compound 1 µM) was 96.8%. The viability, T/C (second compound 0.03 µM, first compound 3.16 µM) was 102%, the viability, T/C (second compound 0.03 µM, first compound 10 µM) was 103% and the viability, T/C (second compound 0.0949 µM, first compound 0.0316 µM) was 93.5%. It also gave a viability, T/C (second compound 0.0949 µM, first compound 0.1 µM) of 91.7%, a viability, T/C (second compound 0.0949 µM, first compound 0.316 µM) of 107% and a viability, T/C (second compound 0.0949 µM, first compound 1 µM) of 112%. It also gave a viability, T/C (second compound 0.0949 µM, first compound 3.16 µM) of 94.4%, a viability, T/C (second compound 0.0949 µM, first compound 10 µM) of 109% and a viability, T/C (second compound 0.3 µM, first compound 0.0316 µM) of 116%. For the same compound, the viability, T/C (second compound 0.3 µM, first compound 0.1 µM) was 105%, the viability, T/C (second compound 0.3 µM, first compound 0.316 µM) was 105% and the viability, T/C (second compound 0.3 µM, first compound 1 µM) was 109%. It also gave a viability, T/C (second compound 0.3 µM, first compound 3.16 µM) of 107%, a viability, T/C (second compound 0.3 µM, first compound 10 µM) of 90.7% and a viability, T/C (second compound 0.949 µM, first compound 0.0316 µM) of 96.5%. The viability, T/C (second compound 0.949 µM, first compound 0.1 µM) was 104%, the viability, T/C (second compound 0.949 µM, first compound 0.316 µM) was 116% and the viability, T/C (second compound 0.949 µM, first compound 1 µM) was 106%. For the same compound, the viability, T/C (second compound 0.949 µM, first compound 3.16 µM) was 106%, the viability, T/C (second compound 0.949 µM, first compound 10 µM) was 116% and the viability, T/C (second compound 3 µM, first compound 0.0316 µM) was 94.2%. It also gave a viability, T/C (second compound 3 µM, first compound 0.1 µM) of 112%, a viability, T/C (second compound 3 µM, first compound 0.316 µM) of 103% and a viability, T/C (second compound 3 µM, first compound 1 µM) of 97%. It also gave a viability, T/C (second compound 3 µM, first compound 3.16 µM) of 99.8% and a viability, T/C (second compound 3 µM, first compound 10 µM) of 107%.

For `C=C(F)C(=O)N1CCN(c2nc(OCC3CCCN3C)nc3c2CCN(c2cccc4cccc(Cl)c24)C3)CC1CC#N` (configuration not stated) + Cc1c(S(C)(=O)=O)c(-c2cc(F)cc(N3CCN(c4ccc(NS(=O)(=O)c5ccc(NC(CCN6CCC(C(=O)OCCCP(=O)(O)O)CC6)CSc6ccccc6)c(S(=O)(=O)C(F)(F)F)c5)cc4)CC3)c2)c(-c2ccc(Cl)cc2)n1C(C)C, the IC50 [1] was 5.61 µM, the IC50 [2] was 5.89 µM and the IC50 [3] was 4.12 µM. It also gave an IC50 (curve of first compound, second compound 3.16 µM) of 2.53 µM, an IC50 (curve of first compound, second compound 10 µM) of 2.43 µM and a viability, T/C [4] of 93.8%. The viability, T/C [5] was 86.7%, the viability, T/C [6] was 106% and the viability, T/C [7] was 90.9%. It also gave a viability, T/C [8] of 118%, a viability, T/C [9] of 0.36% and a viability, T/C [10] of 130%. For the same compound, the viability, T/C [11] was 129%, the viability, T/C [12] was 113% and the viability, T/C [13] was 125%. The viability, T/C [14] was 108%, the viability, T/C [15] was 0.3% and the viability, T/C [16] was 124%. It also gave a viability, T/C [17] of 136%, a viability, T/C [18] of 133% and a viability, T/C [19] of 131%. The viability, T/C [20] was 64.8%, the viability, T/C [21] was 0.25% and the viability, T/C (second compound 3.16 µM, first compound 0.0316 µM) was 161%. For the same compound, the viability, T/C (second compound 3.16 µM, first compound 0.1 µM) was 149%, the viability, T/C (second compound 3.16 µM, first compound 0.316 µM) was 144% and the viability, T/C (second compound 3.16 µM, first compound 1 µM) was 185%. For the same compound, the viability, T/C (second compound 3.16 µM, first compound 3.16 µM) was 23.6%, the viability, T/C (second compound 3.16 µM, first compound 10 µM) was 0.3% and the viability, T/C (second compound 10 µM, first compound 0.0316 µM) was 179%. For the same compound, the viability, T/C (second compound 10 µM, first compound 0.1 µM) was 191%, the viability, T/C (second compound 10 µM, first compound 0.316 µM) was 196% and the viability, T/C (second compound 10 µM, first compound 1 µM) was 202%. For the same compound, the viability, T/C (second compound 10 µM, first compound 3.16 µM) was 15.2% and the viability, T/C (second compound 10 µM, first compound 10 µM) was 0.27%.

For `C#Cc1c(F)ccc2cc(O)cc(-c3ncc4c(N5CC6CCC(C5)N6)nc(OCC56CCCN5CC(F)C6)nc4c3F)c12` (configuration not stated), the viability, T/C (compound 0.0316 µM) was 105% and 82.7% and 103%, the viability, T/C (compound 0.1 µM) was 107% and 98% and 102% and the viability, T/C (compound 0.316 µM) was 129% and 115% and 117%. The viability, T/C (compound 1 µM) was 229% and 139% and 208%, the viability, T/C (compound 3.16 µM) was 271% and 153% and 240% and the viability, T/C (compound 10 µM) was 281% and 162% and 190%. The IC50 (curve of compound) was over 10 µM.
